Data taken from patent US4298745A, “Hydantoin derivatives” (Beecham Group Limited, priority 1978, dated 1981).
Like-named read-outs stand apart in the source and are kept apart here.

Columns and labels:
[1] = system: 5-hydroxytryptamine induced bronchoconstriction; test: inhibition of 5-hydroxytryptamine induced bronchoconstriction in the anaesthetised, artificially respired guinea pig (Konzett-Rossler preparation); format: in vivo; conditions: for ED50: Cavia porcellus, iv
Description: 1. The compounds were examined for their ability to inhibit 5-hydroxytryptamine induced bronchoconstriction in the anaesthetised, artificially respired guinea pig (Konzett-Rossler preparation) The compounds were administered intravenously.
The test for bronchodilator activity used in `Bronchodilator activity` method 1 above was used with three test animals for the comparison testing of Compound 5 against the compound 5-(6-carboxyhexyl)-1-(3-hydroxy-4,4-dimethyloctyl)hydantoin (A) highlighted in German Offenlegungsschrift No. 2724948 for its anti-bronchoconstriction activity.

[2] = system: collagen induced platelet aggregation in human platelet rich plasma; test: inhibition of platelet aggregation induced in vitro by collagen in human platelet rich plasma; format: cell-based; conditions: Table C, read-out: IC50 against collagen induced aggregation
Excerpt: The compounds were examined for their ability to inhibit platelet aggregation induced in vitro by collagen in human platelet rich plasma.

[3] = system: indomethacin induced gastric damage; test: anti-ulcer activity: inhibition of indomethacin induced gastric damage in the rat; format: in vivo; conditions: 100 mg/kg orally
Description: Anti-ulcer activity was assessed by the inhibition of indomethacin induced gastric damage in the rat according to the method of Eleghe (1974) Israeli J. Med. Sci. IO, 1451. Rats were starved overnight, given 15 mg/kg indomethacin subcutaneously and sacrificed 4 hours later. Stomachs were reflated with n.saline, cut along the greater curvature pinned out and scored for gastric damage by the following system.
Score 1-3--according to degree of erythema and slight haemorrhage.
Score 4-6--according to degree of mucosal erosion.
Score 7-9--according to depth of gastric damage.
Groups of 7 rats were used for each treatment and the test compound or vehicle were administered 30 minutes prior to giving the indomethacin. Dose of test compound was 100 mg/kg orally and control groups receiving vehicle only were set up simultaneously. Mean values for each treatment were obtained using the above scoring system and the Mann Witney test applied for significance of difference between the values obtained with the treatments.

[4] = system: bronchoconstriction induced by a histamine aerosol; test: protection of conscious guinea pigs against bronchoconstriction induced by a histamine aerosol (Herxheimer test); format: in vivo, guinea pig; conditions: Table B, compound by aerosol
Excerpt: 2. The compounds were also examined for their ability to protect conscious guinea pigs against bronchoconstriction induced by a histamine aerosol (Herxheimer test). In these experiments the compounds were adminstered by aerosol.

[5] = system: arrhythmia in electrostimulation of the right ventricle; test: anti-arrhythmic activity: increase of the voltage required to produce arrhythmia in electrostimulation of the right ventricle; format: in vivo, guinea pig; conditions: Table D; anaesthetised guinea pigs, 32.0 mg/kg I.d.; p<0.5 (so in the source)
Excerpt: Compound 5 was examined for its ability to increase the voltage required to produce arrhythmia in electrostimulation of the right ventricle in anaesthatised guinea pigs.

[6] = Table A, anaesthetised guinea pig, i.v., read-out: ED50 against 5-hydroxytryptamine induced bronchoconstriction
[7] = Table E, comparison testing, three test animals, guinea pig, read-out: ED50 (mean)

Structure (SMILES) | ED50 [1, 6] | IC50 [2] | Mean Score ± S.E. of mean (gastric damage) ([3]; 30 minutes before 15 mg/kg indomethacin s.c., score 1-9, vehicle control 4.14±0.59, p<0.01) | anti-ulcer activity (in words) ([3]; compared with vehicle only treatment) | Activity, Aerosol administration (Herxheimer test) [4] | % increase of voltage ± SEM [5] | ED50 [1, 7] | bronchodilator potency of compound 5 relative to Compound A ([1]; comparison testing, Table E)
CCCCC(C)C(C)(O)CCN1C(=O)N(C)C(=O)C1CC=CCCCC(=O)O (stereo not drawn) [Compound 4, 1-(3'-hydroxy-3'-methyl-4'-methyl-n-octyl)-3-methyl-5(6"-carboxy-n-hex-2"- enyl)hydantoin] | 0.6 µg/kg | 28 µM | 0.43±0.20 | reduced the mean ulcer score and therefore has significant anti-ulcer activity | 0.5 µg/mL |  |  | 
CCCCCCC(C)(O)CCN1C(=O)N(C)C(=O)C1CC=CCCCC(=O)O (stereo not drawn) [Compound 5] | 1.3 µg/kg | 22 µM |  |  | 1 µg/mL | 43.0 ± 7.0% | 1.2 µg/kg | at least an order of magnitude more potent
CCCCC(C)(C)C(O)CCN1C(=O)NC(=O)C1CCCCCCC(=O)O (stereo not drawn) [Compound A, 5-(6-carboxyhexyl)-1-(3-hydroxy-4,4-dimethyloctyl)hydantoin, reference compound] |  |  |  |  |  |  | 24.6 µg/kg | 
